Experimental data from patent EP4755888A1 (ILAb Co., Ltd., priority 2023, dated 2025).

biological target: PD-1/PD-L1 (Homo sapiens, UniProt Q9NZQ7); assay: TR-FRET PD-1/PD-L1 binding inhibition at the molecular level (free proteins); conditions: Tag1-PD-L1 and Tag2-PD-1 proteins, twelve concentrations from 200 nM, 2 hours at room temperature, read-out: FRET assay (IC50)
Summary of the method: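 HTRF read-out at 665/620 nm after 2 h at room temperature. Detection used anti-Tag1 Eu cryptate plus anti-Tag2 XL665 antibodies. Tagged PD-L1 and PD-1 proteins were pre-mixed with compound across twelve […] 1:2 dilutions starting at 200 nM.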

Sequence of PD-1/PD-L1 (Q9NZQ7 19-238 limits assumed): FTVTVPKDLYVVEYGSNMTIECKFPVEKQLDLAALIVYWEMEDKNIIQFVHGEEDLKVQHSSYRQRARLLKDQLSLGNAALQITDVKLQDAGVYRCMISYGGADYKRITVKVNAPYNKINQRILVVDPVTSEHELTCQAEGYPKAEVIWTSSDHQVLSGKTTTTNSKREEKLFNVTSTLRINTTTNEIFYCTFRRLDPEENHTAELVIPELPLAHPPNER

| SMILES | IC50 [nM] |
| --- | --- |
| Cc1c(NC(=O)c2ccc(CN3CC[C@@H](O)C3)cn2)cccc1-c1cccc(NC(=O)c2cc3n(n2)CCCC3N2CC[C@@H](C(=O)O)C2)c1C (stereo partly drawn) [Compound 96, (3R)-1-(2-((3'-(5-(((R)-3-hydroxypyrrolidin-1-yl)methyl)picolinamido)-2,2'-dimethyl-[1,1'-biphenyl]-3-yl)carbamoyl)-4,5,6,7-tetrahydropyrazolo[1,5-a]pyridin-4-yl)pyrrolidine-3-carboxylic acid] | < 10 |
| O=C(Nc1cccc(-c2cccc(Nc3nccc4cc(CN5CC[C@H](O)C5)cnc34)c2Cl)c1Cl)c1cc2n(n1)CCCC2N1CCC(O)CC1 (stereo partly drawn) [Compound 97, N-(2,2'-dichloro-3'-((3-(((S)-3-hydroxypyrrolidin-1-yl)methyl)-1,7-naphthyridin-8-yl)amino)-[1,1'-biphenyl]-3-yl)-4-(4-hydroxypiperidin-1-yl)-4,5,6,7-tetrahydropyrazolo[1,5-a]pyridine-2-carboxamide] | < 10 |
| Cc1c(NC(=O)c2ccc(CN3CC[C@@H](O)C3)cn2)cccc1-c1cccc(NC(=O)c2cc3n(n2)CCCC3N2CCC(C(=O)O)CC2)c1C (stereo partly drawn) [Compound 98, 1-(2-((3'-(5-(((R)-3-hydroxypyrrolidin-1-yl)methyl)picolinamido)-2,2'-dimethyl-[1,1'-biphenyl]-3-yl)carbamoyl)-4,5,6,7-tetrahydropyrazolo[1,5-a]pyridin-4-yl)piperidine-4-carboxylic acid] | < 10 |
| Cc1c(NC(=O)c2ccc(CN3CC[C@@H](O)C3)cn2)cccc1-c1cccc(NC(=O)c2cc3n(n2)CCCC3NC(C)(C)C(=O)O)c1C (stereo partly drawn) [Compound 99, 2-((2-((3'-(5-(((R)-3-hydroxypyrrolidin-1-yl)methyl)picolinamido)-2,2'-dimethyl-[1,1'-biphenyl]-3-yl)carbamoyl)-4,5,6,7-tetrahydropyrazolo[1,5-a]pyridin-4-yl)amino)-2-methylpropanoic acid] | < 10 |
| O=C(Nc1cccc(-c2cccc(NC(=O)c3cc4n(n3)CCCC4NCCO)c2Cl)c1Cl)c1ccc(CN2CC[C@@H](O)C2)cn1 (stereo partly drawn) [Compound 100, N-(2,2'-dichloro-3'-(5-(((R)-3-hydroxypyrrolidin-1-yl)methyl)picolinamido)-[1,1'-biphenyl]-3-yl)-4-((2-hydroxyethyl)amino)-4,5,6,7-tetrahydropyrazolo[1,5-a]pyridine-2-carboxamide] | < 10 |
| O=C(Nc1cccc(-c2cccc(NC(=O)c3cc4n(n3)CCCC4N3CC[C@@H](O)C3)c2Cl)c1Cl)c1ccc(CN2CC[C@@H](O)C2)cn1 (stereo partly drawn) [Compound 101, N-(2,2'-dichloro-3'-(5-(((R)-3-hydroxypyrrolidin-1-yl)methyl)picolinamido)-[1,1'-biphenyl]-3-yl)-4-((R)-3-hydroxypyrrolidin-1-yl)-4,5,6,7-tetrahydropyrazolo[1,5-a]pyridine-2-carboxamide] | 10 to 100 |
| CC(=O)NCCNC1CCCn2nc(C(=O)Nc3cccc(-c4cccc(NC(=O)c5ccc(CN6CC[C@@H](O)C6)cn5)c4Cl)c3Cl)cc21 (stereo partly drawn) [Compound 103, 4-((2-acetamidoethyl)amino)-N-(2,2'-dichloro-3'-(5-(((R)-3-hydroxypyrrolidin-1-yl)methyl)picolinamido)-[1,1'-biphenyl]-3-yl)-4,5,6,7-tetrahydropyrazolo[1,5-a]pyridine-2-carboxamide] | < 10 |
| O=C(O)CNC1CCCn2nc(C(=O)Nc3cccc(-c4cccc(NC(=O)c5ccc(CN6CC[C@@H](O)C6)cn5)c4Cl)c3Cl)cc21 (stereo partly drawn) [Compound 104, 2-((2-((2,2'-dichloro-3'-(5-(((R)-3-hydroxypyrrolidin-1-yl)methyl)picolinamido)-[1,1'-biphenyl]-3-yl)carbamoyl)-4,5,6,7-tetrahydropyrazolo[1,5-a]pyridin-4-yl)amino)acetic acid] | < 10 |
| O=C(Nc1cccc(-c2cccc(NC(=O)c3cc4n(n3)CCCC4N3CC[C@@H](C(=O)O)C3)c2Cl)c1Cl)c1ccc(CN2CC[C@@H](O)C2)cn1 (stereo partly drawn) [Compound 105, (3R)-1-(2-((2,2'-dichloro-3'-(5-(((R)-3-hydroxypyrrolidin-1-yl)methyl)picolinamido)-[1,1'-biphenyl]-3-yl)carbamoyl)-4,5,6,7-tetrahydropyrazolo[1,5-a]pyridin-4-yl)pyrrolidine-3-carboxylic acid] | < 10 |
| O=C(Nc1cccc(-c2cccc(NC(=O)c3cc4n(n3)CCCC4N3CCC(O)CC3)c2Cl)c1Cl)c1ccc(CN2CC[C@@H](O)C2)cn1 (stereo partly drawn) [Compound 106, N-(2,2'-dichloro-3'-(5-(((R)-3-hydroxypyrrolidin-1-yl)methyl)picolinamido)-[1,1'-biphenyl]-3-yl)-4-(4-hydroxypiperidin-1-yl)-4,5,6,7-tetrahydropyrazolo[1,5-a]pyridine-2-carboxamide] | < 10 |
| O=C(Nc1cccc(-c2cccc(NC(=O)c3cc4n(n3)CCCC4N3CCC(C(=O)O)CC3)c2Cl)c1Cl)c1ccc(CN2CC[C@@H](O)C2)cn1 (stereo partly drawn) [Compound 107, 1-(2-((2,2'-dichloro-3'-(5-(((R)-3-hydroxypyrrolidin-1-yl)methyl)picolinamido)-[1,1'-biphenyl]-3-yl)carbamoyl)-4,5,6,7-tetrahydropyrazolo[1,5-a]pyridin-4-yl)piperidine-4-carboxylic acid] | 10 to 100 |
| CC(C)(NC1CCCn2nc(C(=O)Nc3cccc(-c4cccc(NC(=O)c5ccc(CN6CC[C@@H](O)C6)cn5)c4Cl)c3Cl)cc21)C(=O)O (stereo partly drawn) [Compound 108, 2-((2-((2,2'-dichloro-3'-(5-(((R)-3-hydroxypyrrolidin-1-yl)methyl)picolinamido)-[1,1'-biphenyl]-3-yl)carbamoyl)-4,5,6,7-tetrahydropyrazolo[1,5-a]pyridin-4-yl)amino)-2-methylpropanoic acid] | < 10 |
| Cc1c(NC(=O)c2cc3n(n2)CCCC3O)cccc1-c1cccc(-c2ccc(CNC[C@@H]3CCC(=O)N3)cc2)c1C (stereo partly drawn) [Compound 109, N-(2,2'-dimethyl-4"-(((((S)-5-oxopyrrolidin-2-yl)methyl)amino)methyl)-[1,1':3',1"-terphenyl]-3-yl)-4-hydroxy-4,5,6,7-tetrahydropyrazolo[1,5-a]pyridine-2-carboxamide] | < 10 |
| COc1nc(-c2cccc(-c3cccc(NC(=O)c4cc5n(n4)CCCC5O)c3C)c2C)cnc1CNC[C@@H]1CCC(=O)N1 (stereo partly drawn) [Compound 110, 4-hydroxy-N-(3'-(6-methoxy-5-(((((S)-5-oxopyrrolidin-2-yl)methyl)amino)methyl)pyrazin-2-yl)-2,2'-dimethyl-[1,1'-biphenyl]-3-yl)-4,5,6,7-tetrahydropyrazolo[1,5-a]pyridine-2-carboxamide] | < 10 |
| O=C1CC[C@@H](CNCc2ccc(-c3cccc(-c4cccc(NC(=O)c5cc6n(n5)CCCC6O)c4Cl)c3Cl)cc2)N1 (stereo partly drawn) [Compound 111, N-(2,2'-dichloro-4"-(((((S)-5-oxopyrrolidin-2-yl)methyl)amino)methyl)-[1,1':3',1"-terphenyl]-3-yl)-4-hydroxy-4,5,6,7-tetrahydropyrazolo[1,5-a]pyridine-2-carboxamide] | < 10 |
| COc1cc(-c2cccc(-c3cccc(NC(=O)c4cc5n(n4)CCCC5O)c3C)c2C)cc(F)c1CNC[C@@H]1CCC(=O)N1 (stereo partly drawn) [Compound 112, N-(3"-fluoro-5"-methoxy-2,2'-dimethyl-4"-(((((S)-5-oxopyrrolidin-2-yl)methyl)amino)methyl)-[1,1':3',1"-terphenyl]-3-yl)-4-hydroxy-4,5,6,7-tetrahydropyrazolo[1,5-a]pyridine-2-carboxamide] | < 10 |
| COc1cc(-c2cccc(-c3cccc(NC(=O)c4cc5n(n4)CCCC5O)c3C)c2C)cc(F)c1CNCCNC(C)=O (stereo not shown) [Compound 112-1, N-(4"-(((2-acetamidoethyl)amino)methyl)-3"-fluoro-5"-methoxy-2,2'-dimethyl-[1,1':3',1"-terphenyl]-3-yl)-4-hydroxy-4,5,6,7-tetrahydropyrazolo[1,5-a]pyridine-2-carboxamide] | < 10 |
| COc1cc(-c2cccc(-c3cccc(NC(=O)c4cc5n(n4)CCCC5O)c3C)c2C)cc(F)c1CN1CC[C@@H](O)C1 (stereo partly drawn) [Compound 113, N-(3"-fluoro-4"-(((R)-3-hydroxypyrrolidin-1-yl)methyl)-5"-methoxy-2,2'-dimethyl-[1,1':3',1"-terphenyl]-3-yl)-4-hydroxy-4,5,6,7-tetrahydropyrazolo[1,5-a]pyridine-2-carboxamide] | < 10 |
| COc1cc(-c2cccc(-c3cccc(NC(=O)c4cc5n(n4)CCCC5O)c3C)c2C)cc(F)c1CNCCO (stereo not shown) [Compound 114, N-(3"-fluoro-4"-(((2-hydroxyethyl)amino)methyl)-5"-methoxy-2,2'-dimethyl-[1,1':3',1 "-terphenyl]-3-yl)-4-hydroxy-4,5,6,7-tetrahydropyrazolo[1,5-a]pyridine-2-carboxamide] | < 10 |
| COc1cc(-c2cccc(-c3cccc(NC(=O)c4cc5n(n4)CCCC5N4CC[C@@H](O)C4)c3C)c2C)cc(F)c1CNC(C)(C)C(=O)O (stereo partly drawn) [Compound 115, 2-(((3-fluoro-3"-(4-((R)-3-hydroxypyrrolidin-1-yl)-4,5,6,7-tetrahydropyrazolo[1,5-a]pyridine-2-carboxamido)-5-methoxy-2',2"-dimethyl-[1,1':3',1"-terphenyl]-4-yl)methyl)amino)-2-methylpropanoic acid] | < 10 |
| COc1cc(-c2cccc(-c3cccc(NC(=O)c4cc5n(n4)CCCC5O)c3Cl)c2Cl)cc(F)c1CNCCNC(C)=O (stereo not shown) [Compound 116, N-(4"-(((2-acetamidoethyl)amino)methyl)-2,2'-dichloro-3"-fluoro-5"-methoxy-[1,1':3',1"-terphenyl]-3-yl)-4-hydroxy-4,5,6,7-tetrahydropyrazolo[1,5-a]pyridine-2-carboxamide] | 10 to 100 |
| COc1cc(-c2cccc(-c3cccc(NC(=O)c4cc5n(n4)CCCC5O)c3Cl)c2Cl)cc(F)c1CN1CC[C@@H](O)C1 (stereo partly drawn) [Compound 117, N-(2,2'-dichloro-3"-fluoro-4"-(((R)-3-hydroxypyrrolidin-1-yl)methyl)-5"-methoxy-[1,1':3',1"-terphenyl]-3-yl)-4-hydroxy-4,5,6,7-tetrahydropyrazolo[1,5-a]pyridine-2-carboxamide] | 10 to 100 |
